Structures are written as SMILES.

One may read the melting point as the temperature, or range, at which the solid turns liquid. In turn, `CCOC(=O)/C=C/c1cn(-c2ccccc2)nc1OCc1ccc(OCc2nc(-c3ccccc3)oc2C)c(OC)c1` gave a melting point of 194 to 195 °C.

For `Cc1nn(C)c2cc(-c3ccc4nnn(Cc5ccc6ncccc6c5)c4n3)ccc12`, the melting point was 159 to 163 °C.

Compound `CC1(C)CS(=O)(=O)CC(C)(C)c2[nH]c(-c3ccccc3)nc21` gave a melting point of 260 to 263 °C.

Take `Cc1cccc2nc3n(c(=O)c12)-c1ccc(F)cc1C3=O`: the melting point fell in the range of 300 to 301 °C.

In the case of `Cn1c(=O)nc(-c2ccccc2)c2cc([N+](=O)[O-])ccc21`, the melting point is 261 to 264 °C.

In the case of `COc1ccc(C(=O)c2ccccc2F)c(O)c1Br`, the melting point lay in the range of 127 to 129 °C.

As for `Cc1nc(CO)cn1Cc1ccccc1`, the melting point fell in the range of 140 to 146 °C.

In turn, `O=C(O)c1ccc2nc3c(c(=O)n2c1)CCC3=Cc1ccccc1` yielded a melting point of 153 to 154 °C.

As for `c1ccc2c(Cn3cncn3)noc2c1`, the melting point lay in the range of 102 to 104 °C.

`CCOC(=O)CC(NCCCNC(C)(C)C)C(=O)O` (stereo not drawn) came in with a melting point of 174 to 175 °C.

For the compound `O=C(OC1COC1)c1sccc1OS(=O)(=O)Cl`, the melting point was in the range of 92 to 94 °C.

Consider `COC(=O)c1c(CSc2nccn2C)nc2cc(OC)c(OC)cc2c1-c1ccc(OC)c(OC)c1`, for which the melting point fell in the range of 159 to 160 °C.

Consider `CCNC1CC=C(c2c[nH]c3ccc([N+](=O)[O-])cc23)CC1` (stereo not drawn), for which the melting point fell in the range of 177 to 179 °C.

In turn, `Cn1c(=O)n(-c2cc([N+](=O)[O-])c(Cl)cc2F)c(=S)n1C` registered a melting point of 146 °C.

`CSCc1cn(C)c2cc(C(F)(F)F)ccc2c1=O` showed a melting point of 182 to 184 °C.

`Cc1cc(-c2cc(N)n3nc(-c4ccco4)nc3c2)ccn1` had a melting point of 100 to 101 °C.

Compound `COC(=O)CCC(=O)c1cc(NC(C)=O)ccc1O` yielded a melting point of 145 to 147 °C.

As to `CCC(=O)c1c(SC)sc(C#N)c1CC`, the melting point lay within 66 to 67 °C.

`CC(C)c1cccc(C(C)C)c1NC(=O)C1CCCC(Cc2ccccn2)(Cc2ccccn2)C1=O` (stereo not drawn) yielded a melting point of 70 to 73 °C.

The compound `COc1ccc(-c2nc(N)ncc2-c2ccc(=O)n(C(C)C)n2)cc1OC` displayed a melting point of 167 °C.

In the case of `CN1CCC(C2(O)c3ccccc3C=Cc3ccc(C#N)cc32)CC1` (stereo not drawn), the melting point was 219 to 221 °C.

Regarding `O=C1c2ccc(Cl)cc2CC1(F)Br` (stereo not drawn), the melting point lay in the range of 104 to 105 °C.

`COc1cc(Cl)nc(S(C)(=O)=O)n1` showed a melting point of 68 to 74 °C.

With `COC(=O)c1cc(OC)c(O)cc1[N+](=O)[O-]`, the melting point lay in the range of 101 to 102 °C.

As for `CC12CCC(=O)C=C1CCC1C2CCC2(C)C(C(=O)NC3C4CC5CC(C4)CC3C5)CCC12` (stereo not drawn), the melting point was in the range of 244 to 246 °C.

`C=CCNc1nc(NC(=O)C(C)(C)C)c2scc(C)c2n1` yielded a melting point of 88 to 89 °C.

`CC(C)c1n[nH]c(=O)n1N` showed a melting point of 172 °C.

`CC(C)SSCC12CCC(O)CC1=CCC1C3CCC(=O)C3(C)CCC12` (stereo not drawn) registered a melting point of 168 to 169 °C.

Regarding `OCc1cn2c(n1)CN=C(c1ccccc1)c1cc(C(F)(F)F)ccc1-2`, the melting point lay in the range of 193 to 194 °C.

Compound `O=C1COc2cc3[nH]c(C(=O)N4CCC(Cc5ccccc5)CC4)cc3cc2N1` had a melting point of 225 to 231 °C.

Take `Cn1ncc2c(=O)n3c(nc21)SCC3`: the melting point lay in the range of 257 to 258 °C.

In turn, `CCc1scc(C(=O)O)c1N` had a melting point of 132 to 133 °C.

Compound `CN1C2CCCC1CC(NC(=O)c1cc(Cl)cc3nc(-c4ccccc4)oc13)C2` (stereo not drawn) yielded a melting point of 199 to 201 °C.

Regarding `CNC1CC=C(c2c[nH]c3cc([N+](=O)[O-])ccc23)CC1` (stereo not drawn), the melting point is 170 to 172 °C.

In turn, `FC(F)(F)c1ccc2c(Cl)nccc2n1` had a melting point of 90 °C.

For the compound `CCCc1nnc2c(NC3CCCC3)nc3ccccc3n12`, the melting point lay in the range of 186 to 188 °C.

In the case of `COc1cc(CCCCN(C)Cc2ccc(OC)c(OC)c2)ccc1NC(=O)c1cccc2c(=O)c3cccc(OC)c3[nH]c12`, the melting point lay within 114 to 115 °C.

`O=c1c2ccc(Cl)cc2[nH]c2c(=O)n(CCO)nc(O)c12` yielded a melting point of 377 to 378 °C.

The compound `COC(=O)C=CC1C(C(=O)OC(C#N)c2cccc(Oc3ccccc3)c2)C1(C)C` (stereo not drawn) yielded a melting point of 98 °C.

The compound `CC(C)(C)CC(C)(C)NSc1nc2ccccc2s1` yielded a melting point of 104 °C.

Compound `CNCCCc1nc2ccccc2[nH]1` had a melting point of 134 to 136 °C.

On to `CC(=O)Nc1ccc2[nH]c(=O)c(=O)n(CC(C)(C)C)c2c1`, for which the melting point was in the range of 294 to 295 °C.

On to `CCOCCOCCOCC1(c2ccc(Oc3cncc4sc(-c5nnc(N)o5)cc34)cc2)CC1`, for which the melting point lay within 113 to 114 °C.

Take `CCCOc1ccc(CO)nc1OCc1ccccc1`: the melting point was 50 to 51 °C.

For `CS(=O)(=O)c1ccc(C(CC2CCCC2)C(=O)Nc2ncc(C(N)=O)s2)cc1` (stereo not drawn), the melting point lay within 155 to 160 °C.

As to `Cc1cc(-c2ccccc2C#N)ccc1[N+](=O)[O-]`, the melting point was in the range of 128 to 136 °C.

For `CCCCCCCCCCOc1ccc(Br)cc1OCCCCCCCCCC`, the melting point is 39.5 to 40 °C.

Compound `C=C1CC(COc2cccc3ccc(C)nc23)(c2ccccc2)OC1=O` (stereo not drawn) displayed a melting point of 108 to 109 °C.

Consider `O=c1[nH]c2cccnc2n1-c1ccccn1`, for which the melting point fell in the range of 235 to 238 °C.

`O=c1[nH]c2ncc(-c3ccc(-c4nc[nH]n4)cc3)nc2n1CCC1CCOCC1` had a melting point of 263 to 266 °C.

Compound `COc1ccc2[nH]c(=O)c3cccn3c2n1` returned a melting point of 250 °C.

`Nc1cc2c(cc1Cl)C(=O)C1(CC1)O2` registered a melting point of 201 °C.

`CCN(CC)CC1CCCCN1CC(C)(C)NC(=O)N1c2ccccc2C(=O)Nc2cccnc21` (stereo not drawn): the melting point lay in the range of 160 to 162 °C.

`CC12CCC3c4ccc(C(=O)O)cc4CCC3C1CCC2C(=O)CCc1ccc(O)cc1` (stereo not drawn) came in with a melting point of 197 °C.

Consider `Nc1cc(CCC(=O)NC2CCc3ccccc32)ccc1O` (stereo not drawn), for which the melting point was in the range of 130 to 131 °C.

On to `N#Cc1ccc(-c2nc(N3C(=O)OCC34CC4)sc2F)cc1`, for which the melting point lay in the range of 222 to 224 °C.

The compound `CNC(=O)c1snc(-c2cccc(C(F)(F)F)c2)c1N` showed a melting point of 113 °C.

On to `Cc1cn(-c2ccc(NC(=O)c3ccc(Cl)c(C#Cc4cnc(NC5CC5)nc4)c3)cc2C(F)(F)F)cn1`, for which the melting point fell in the range of 141 to 143 °C.

Consider `CCCCC(=O)Nc1ccc(Oc2ncc(Cl)cn2)c(C)c1`, for which the melting point was 146 to 150 °C.

The compound `Cc1cn(C(C)(C)C(=O)N(C)C)nc1-c1ccccc1` gave a melting point of 107 to 109 °C.

Consider `CC1(C)CS(=O)(=O)CC(C)(C)N1Br`, for which the melting point turned out to be 150 °C.

`C[N+]([O-])=C(Cn1cncn1)c1ccccc1` displayed a melting point of 117 to 119 °C.

In the case of `O=C1CN(C(=O)COc2cc(-c3ccccc3)nc3ccccc23)CCN1`, the melting point turned out to be 215 °C.

On to `CCn1c(C(C)N(C)S(=O)(=O)c2ccc(Cl)c(Cl)c2)cnc1Oc1ccc(Cl)cc1` (stereo not drawn), for which the melting point was 142 to 144 °C.

Compound `CN1CCCCNC1=C[N+](=O)[O-]` displayed a melting point of 88 to 89 °C.

`CCOC(=O)C(C)(C)Oc1ccc2c(-c3ccc(Cl)cc3)noc2c1` displayed a melting point of 70 °C.

In turn, `Cc1nc(N2C[C@H](C)N(Cc3ccc(F)cc3)C2=O)sc1C(N)=O` yielded a melting point of 185 to 186 °C.

Regarding `O=[N+]([O-])c1cccc(N2CCOCC2)c1`, the melting point is 87 to 90 °C.

As to `CCOCN(C(=O)CCl)c1c(C)cccc1[N+](=O)[O-]`, the melting point is 96 to 98 °C.

For `CCCOc1ccccc1-c1nc2cc([N+](=O)[O-])ccc2c(=O)[nH]1`, the melting point was found to be 138 °C.

For the compound `CC(C(=O)N(C)C)n1cc(Cl)c(-c2ccccc2)n1` (stereo not drawn), the melting point was in the range of 73.5 to 75 °C.

`COc1cc(NC(=O)c2cccc(CSc3nc(NC(C)=O)n[nH]3)c2)cc(OC)c1OC` gave a melting point of 196 to 201 °C.

On to `COc1cccc2sc(C3CCNC(C)C3)cc12` (stereo not drawn), for which the melting point is 70 to 73 °C.

Consider `N#Cc1c([N+](=O)[O-])ccc(N2CCCC2)c1Cl`, for which the melting point was in the range of 170 to 173 °C.

`CC(=O)Nc1ccc(S(=O)(=O)Nc2ccc(C(O)(C(F)(F)F)C(F)(F)F)cc2)cc1` gave a melting point of 198 to 200 °C.

Take `CS(=O)(=O)Nc1cc2occ(N)c(=O)c2cc1Oc1ccccc1`: the melting point lay within 162 to 163 °C.

Turning to `O=C(NC1CCCC1)NS(=O)(=O)c1cccc(Cl)c1Cl`, the melting point is 202 to 207 °C.

The compound `C[C@H]1Oc2ccc(F)cc2N(C)C(=O)[C@H]1NC(=O)OC(C)(C)C` gave a melting point of 129 to 133 °C.

As to `Cc1oc(-c2ccccc2)nc1COc1cccc(COc2cc(CCC(=O)O)n(-c3ccccc3)n2)c1`, the melting point is 137 to 138 °C.

Compound `CS(=O)(=O)c1ccc(-c2sc(-c3ccccc3Cl)nc2-c2ccc(F)cc2F)cc1` yielded a melting point of 166 to 169 °C.

Take `CN(C)C(N)=C(C#N)C(N)=S`: the melting point was in the range of 186 to 187 °C.

For the compound `CNC(=O)c1cccc(NC(=O)NCc2ccccc2)c1`, the melting point lay in the range of 189 to 190 °C.

For `CCNC(CO)Cc1cn(Cc2ccccc2)cn1` (stereo not drawn), the melting point fell in the range of 109 to 110 °C.

Compound `COC(=O)c1ccc(C(=O)NC2CCC(NC(=O)c3ccc(C(=O)OC)cc3)CC2)cc1` (stereo not drawn) returned a melting point above 350 °C.

In turn, `NC(=O)CCCN(CCCC1CCCCC1)C(=O)Nc1ccccc1` yielded a melting point of 104 to 106 °C.

Compound `CC(/C=C/c1c(C)oc(C)c1C)=C\C=C\C(C)=C\C(=O)O` had a melting point of 213 to 214 °C.

`CC(=O)NCc1cc(C(C)=O)ccc1Cl`: the melting point is 93.1 to 93.7 °C.

On to `CCCCc1nc2c([nH]c(=O)c3ccccc32)s1`, for which the melting point lay in the range of 172 to 173 °C.

`COc1cc(Nc2nn(Cc3ccccc3)c(=O)c3ccccc23)cc(OC)c1OC` had a melting point of 206 to 207 °C.

Consider `N#CCC(=O)c1ccc(C(F)(F)F)cc1[N+](=O)[O-]`, for which the melting point lay within 79.5 to 80.5 °C.

On to `CC(C)(C)OC(=O)CO/N=C/c1cccc([N+](=O)[O-])c1`, for which the melting point amounted to 110 °C.

`CC(C)(C)NC(=O)N1Cc2c(-c3ccc(F)cc3)ncn2-c2ccccc21`: the melting point was 241 to 244 °C.

Compound `Nc1cc(NCCC2CCCCC2)nc2c1ncn2C1OC(CO)C(O)C1O` (stereo not drawn) returned a melting point of 194 to 195 °C.

(Values after a melting point compilation (Tetko et al.; mined from patent text by program, amines drawn as free bases though some values may be those of a salt).)
